Test results published in patent publication US20070254312A1, “Protein Kinase Inhibitors and Methods for Identiying Same” (priority 2004, published 2007).
pKi: −log10 of the molar value. Starred links: 1 amine or outer side, 2 acyl side, 3 side chain; linkers in the order of their positions; H or OH if unused. Non-standard residues stand in square brackets, D forms with d. Residues, ends and D or L forms follow the SMILES beside them. *: point of attachment. Benzoyl(4-(pyrrol-1-yl)) = O=C(c1ccc(-n2cccc2)cc1)*; Phenylacetyl(3,4-Cl2) = O=C(Cc1ccc(Cl)c(Cl)c1)*; Cysteamide = C(CS[*:3])N[*:1]; Dap = NC[C@H](N)C(=O)O

Legend:
[1] = molecular target: PKCθ (Homo sapiens, UniProt Q04759); set-up: purchased Panvera; conditions: literature values; relative to most potently inhibited isoform (=1); cited from earlier work
[2] = molecular target: PKC β1 (Homo sapiens, UniProt P05771); conditions: literature values; relative to most potently inhibited isoform (=1); cited from earlier work
[3] = molecular target: T1, PKC ι (Homo sapiens, UniProt P41743); conditions: literature values; relative to most potently inhibited isoform (=1); cited from earlier work
T1 construct: purchased Panvera
T1 sequence (P41743 1-596): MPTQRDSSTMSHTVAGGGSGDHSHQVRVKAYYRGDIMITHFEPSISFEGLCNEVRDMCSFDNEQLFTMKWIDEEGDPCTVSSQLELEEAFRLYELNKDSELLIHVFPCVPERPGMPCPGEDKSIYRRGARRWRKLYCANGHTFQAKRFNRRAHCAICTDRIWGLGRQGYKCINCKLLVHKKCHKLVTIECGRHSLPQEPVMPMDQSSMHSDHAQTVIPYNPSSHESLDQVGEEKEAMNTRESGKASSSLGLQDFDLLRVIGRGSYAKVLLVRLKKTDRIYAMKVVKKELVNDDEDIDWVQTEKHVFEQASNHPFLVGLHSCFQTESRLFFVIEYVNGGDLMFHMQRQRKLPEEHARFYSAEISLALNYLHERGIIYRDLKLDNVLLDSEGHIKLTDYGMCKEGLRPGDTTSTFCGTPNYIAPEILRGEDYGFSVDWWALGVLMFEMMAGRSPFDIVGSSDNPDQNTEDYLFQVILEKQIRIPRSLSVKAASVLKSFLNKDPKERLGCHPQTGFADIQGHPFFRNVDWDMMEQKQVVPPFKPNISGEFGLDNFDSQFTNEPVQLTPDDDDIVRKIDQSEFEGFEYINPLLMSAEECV

[4] = molecular target: PKCα (Homo sapiens, UniProt P17252); conditions: cited from earlier work
[5] = molecular target: T2, PKCβ (Homo sapiens, UniProt P05771); test: PKC isoform assay, Example 1; type: biochemical
T2 construct: purchased Pan Vera
Description: (§1) Protein Kinase C Assay (general). The peptides […] (for PKC α, β and γ) and acetyl-[…] (for PKC ε and ζ) were used as substrates. […] Total reaction volume was 50 μL. […] Following an additional 5 min incubation at ambient temperature, 75 μL from each reaction well was transferred into each well of a Unifilter (P81 cellulose phosphate paper) assay plate and washed four times with 0.1% phosphoric acid in water. […] IC50 values were calculated using GraFit (Erithacus Software Limited) and Ki values were calculated using Enzyme Kinetics, SigmaPlot (SPSS Inc.)

[6] = molecular target: T3, PKCζ (Homo sapiens, UniProt Q05513); set-up: purchased Panvera; conditions: literature values; relative to most potently inhibited isoform (=1); cited from earlier work
T3 sequence (Q05513 1-592): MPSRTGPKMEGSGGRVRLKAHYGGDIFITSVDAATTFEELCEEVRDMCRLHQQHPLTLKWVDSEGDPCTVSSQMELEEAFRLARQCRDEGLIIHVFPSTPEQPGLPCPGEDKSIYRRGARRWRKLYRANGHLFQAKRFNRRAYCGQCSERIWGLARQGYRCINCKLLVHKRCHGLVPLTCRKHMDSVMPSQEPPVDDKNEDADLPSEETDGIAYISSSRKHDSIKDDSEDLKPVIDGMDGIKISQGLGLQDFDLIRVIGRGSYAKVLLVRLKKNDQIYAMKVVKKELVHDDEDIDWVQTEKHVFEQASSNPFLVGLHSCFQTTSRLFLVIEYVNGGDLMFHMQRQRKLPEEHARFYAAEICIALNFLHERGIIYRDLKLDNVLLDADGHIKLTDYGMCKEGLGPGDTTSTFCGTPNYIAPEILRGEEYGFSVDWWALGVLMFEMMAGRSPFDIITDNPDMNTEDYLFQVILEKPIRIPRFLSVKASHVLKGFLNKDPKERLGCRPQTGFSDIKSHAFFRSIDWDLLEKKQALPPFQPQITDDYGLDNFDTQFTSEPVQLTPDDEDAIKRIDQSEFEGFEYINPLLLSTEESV

[7] = molecular target: T4, PKCε (Homo sapiens, UniProt Q02156); set-up: purchased Panvera; conditions: literature values; relative to most potently inhibited isoform (=1); cited from earlier work
T4 sequence (Q02156 1-737): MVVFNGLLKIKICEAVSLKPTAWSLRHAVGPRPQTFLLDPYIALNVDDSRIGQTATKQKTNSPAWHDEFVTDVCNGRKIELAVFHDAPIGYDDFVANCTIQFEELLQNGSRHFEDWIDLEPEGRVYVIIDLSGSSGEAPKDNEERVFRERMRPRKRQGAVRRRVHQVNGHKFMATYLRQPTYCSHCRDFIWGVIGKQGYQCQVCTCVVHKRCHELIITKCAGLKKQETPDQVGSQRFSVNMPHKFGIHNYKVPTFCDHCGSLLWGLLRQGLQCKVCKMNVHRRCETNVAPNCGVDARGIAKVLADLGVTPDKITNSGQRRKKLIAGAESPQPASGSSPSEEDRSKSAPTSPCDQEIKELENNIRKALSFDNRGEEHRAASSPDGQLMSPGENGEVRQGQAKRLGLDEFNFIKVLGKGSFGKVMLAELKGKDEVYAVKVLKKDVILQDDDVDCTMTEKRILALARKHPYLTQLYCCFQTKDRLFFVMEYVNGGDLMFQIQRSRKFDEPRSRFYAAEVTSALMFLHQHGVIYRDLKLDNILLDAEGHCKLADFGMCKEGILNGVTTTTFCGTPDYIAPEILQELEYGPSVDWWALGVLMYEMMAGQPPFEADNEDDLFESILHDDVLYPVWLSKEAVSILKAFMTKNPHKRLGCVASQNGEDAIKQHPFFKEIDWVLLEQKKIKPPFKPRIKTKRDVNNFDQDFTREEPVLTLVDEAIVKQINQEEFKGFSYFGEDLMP

[8] = molecular target: PKCδ (Homo sapiens, UniProt Q05655); set-up: purchased Panvera; conditions: literature values; relative to most potently inhibited isoform (=1); cited from earlier work
[9] = molecular target: PKCγ (Homo sapiens, UniProt P05129); test: PKC isoform assay, Example 1; type: biochemical; set-up: purchased Pan Vera
Description: as §1

[10] = molecular target: PKCη (Homo sapiens, UniProt P24723); set-up: purchased Panvera; conditions: literature values; relative to most potently inhibited isoform (=1); cited from earlier work
Chain of PKCη (P24723 whole entry, canonical isoform): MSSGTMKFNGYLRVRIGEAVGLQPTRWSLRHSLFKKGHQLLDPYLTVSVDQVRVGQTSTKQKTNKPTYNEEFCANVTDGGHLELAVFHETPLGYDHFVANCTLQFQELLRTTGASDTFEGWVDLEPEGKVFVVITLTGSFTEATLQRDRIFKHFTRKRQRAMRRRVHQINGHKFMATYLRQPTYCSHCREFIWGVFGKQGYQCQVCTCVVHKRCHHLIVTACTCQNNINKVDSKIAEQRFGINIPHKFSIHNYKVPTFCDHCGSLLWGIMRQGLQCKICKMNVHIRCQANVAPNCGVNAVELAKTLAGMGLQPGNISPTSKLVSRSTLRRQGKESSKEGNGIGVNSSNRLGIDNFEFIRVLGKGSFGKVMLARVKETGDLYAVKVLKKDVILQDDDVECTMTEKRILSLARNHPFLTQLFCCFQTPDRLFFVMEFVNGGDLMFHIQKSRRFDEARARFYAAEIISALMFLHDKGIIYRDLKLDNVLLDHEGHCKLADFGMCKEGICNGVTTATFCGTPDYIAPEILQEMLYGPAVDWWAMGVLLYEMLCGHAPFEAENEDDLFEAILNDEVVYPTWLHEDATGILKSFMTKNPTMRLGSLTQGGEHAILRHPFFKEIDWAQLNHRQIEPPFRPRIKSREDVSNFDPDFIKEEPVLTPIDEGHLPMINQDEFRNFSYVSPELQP

Chain of PKCθ (Q04759 whole entry, canonical isoform): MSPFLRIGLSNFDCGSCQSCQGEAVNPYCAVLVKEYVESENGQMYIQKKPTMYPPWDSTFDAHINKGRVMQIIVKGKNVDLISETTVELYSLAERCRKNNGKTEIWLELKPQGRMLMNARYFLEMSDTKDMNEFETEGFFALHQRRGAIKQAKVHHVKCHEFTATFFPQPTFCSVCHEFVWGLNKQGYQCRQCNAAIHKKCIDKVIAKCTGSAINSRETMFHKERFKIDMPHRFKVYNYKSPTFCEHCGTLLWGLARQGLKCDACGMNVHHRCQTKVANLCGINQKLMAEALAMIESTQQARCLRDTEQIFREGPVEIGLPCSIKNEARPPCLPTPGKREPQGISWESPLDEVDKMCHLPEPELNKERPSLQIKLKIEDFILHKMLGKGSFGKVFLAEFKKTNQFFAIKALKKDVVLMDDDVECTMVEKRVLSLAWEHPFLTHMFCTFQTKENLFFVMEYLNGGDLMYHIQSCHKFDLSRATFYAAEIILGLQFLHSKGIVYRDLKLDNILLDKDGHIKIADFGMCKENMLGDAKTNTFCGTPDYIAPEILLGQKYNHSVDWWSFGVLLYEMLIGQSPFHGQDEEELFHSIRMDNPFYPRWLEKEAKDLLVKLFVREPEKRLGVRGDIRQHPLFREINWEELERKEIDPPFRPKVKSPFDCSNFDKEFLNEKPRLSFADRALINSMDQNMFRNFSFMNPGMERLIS
Chain of PKC β1 (P05771 whole entry, canonical isoform): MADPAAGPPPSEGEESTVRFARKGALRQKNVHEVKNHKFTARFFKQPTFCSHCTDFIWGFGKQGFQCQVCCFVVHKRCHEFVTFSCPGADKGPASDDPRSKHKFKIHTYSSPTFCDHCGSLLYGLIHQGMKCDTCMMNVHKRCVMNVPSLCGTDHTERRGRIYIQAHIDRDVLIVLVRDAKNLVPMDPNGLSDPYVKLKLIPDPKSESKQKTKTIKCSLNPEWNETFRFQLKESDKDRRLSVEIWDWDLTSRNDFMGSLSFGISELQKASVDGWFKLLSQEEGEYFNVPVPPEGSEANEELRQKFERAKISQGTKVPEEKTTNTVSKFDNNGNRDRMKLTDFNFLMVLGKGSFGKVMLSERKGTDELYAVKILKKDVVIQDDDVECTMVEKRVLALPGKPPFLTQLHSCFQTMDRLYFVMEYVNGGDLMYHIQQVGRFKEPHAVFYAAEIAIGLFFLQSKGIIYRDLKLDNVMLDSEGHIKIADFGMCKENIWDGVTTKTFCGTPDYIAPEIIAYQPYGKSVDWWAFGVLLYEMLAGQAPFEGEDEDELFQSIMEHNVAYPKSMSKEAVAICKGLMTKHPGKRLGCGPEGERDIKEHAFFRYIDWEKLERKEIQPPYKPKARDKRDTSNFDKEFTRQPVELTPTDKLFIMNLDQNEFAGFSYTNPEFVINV
T2 sequence (P05771 whole entry, canonical isoform): as above
Chain of PKCδ (Q05655 whole entry, canonical isoform): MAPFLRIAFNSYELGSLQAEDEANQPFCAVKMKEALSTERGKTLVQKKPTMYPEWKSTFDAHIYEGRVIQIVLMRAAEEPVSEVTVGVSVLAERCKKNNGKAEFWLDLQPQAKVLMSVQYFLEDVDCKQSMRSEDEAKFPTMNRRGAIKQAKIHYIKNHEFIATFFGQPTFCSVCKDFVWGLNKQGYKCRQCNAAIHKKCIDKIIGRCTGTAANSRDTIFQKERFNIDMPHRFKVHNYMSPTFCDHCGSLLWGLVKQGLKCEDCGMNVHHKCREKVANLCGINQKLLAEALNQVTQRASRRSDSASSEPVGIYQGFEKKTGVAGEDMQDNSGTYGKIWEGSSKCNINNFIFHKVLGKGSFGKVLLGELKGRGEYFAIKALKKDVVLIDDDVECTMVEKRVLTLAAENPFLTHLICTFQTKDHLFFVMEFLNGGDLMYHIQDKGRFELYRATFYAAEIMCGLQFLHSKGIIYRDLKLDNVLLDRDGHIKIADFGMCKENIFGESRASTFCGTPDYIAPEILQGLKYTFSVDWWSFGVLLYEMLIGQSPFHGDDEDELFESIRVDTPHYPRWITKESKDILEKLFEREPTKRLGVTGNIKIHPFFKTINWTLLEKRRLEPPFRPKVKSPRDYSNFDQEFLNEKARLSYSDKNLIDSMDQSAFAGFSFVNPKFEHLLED

In the case of CC(C)C[C@H](NC(=O)[C@H](C)NC(=O)CNC(=O)[C@H](CCCNC(=N)N)NC(=O)[C@H](CCCNC(=N)N)NC(=O)[C@H](C)NC(=O)Cc1ccc(Cl)c(Cl)c1)C(=O)N[C@@H](CCCNC(=N)N)C(=O)N[C@@H](CNC(=O)c1ccc(-n2cccc2)cc1)C(=O)N[C@@H](C)C(=O)NCCS [Compound 6] ({Phenylacetyl(3,4-Cl2)}-ARRGALR[Dap](Benzoyl(4-(pyrrol-1-yl)))A-Cysteamide), the “Fold selectivity (IC50), PKC θ” value [1] is given as 1210 fold, the “Fold selectivity (IC50), PKC β1” value [2] is given as 385 fold and the “Fold selectivity (IC50), PKC ι” value [3] is given as 940 fold. The pKi ([4]; Lee et al., 2004, equals the Ki of compound 6 in Table 1, read-out: IC50 or Ki of the most potently inhibited isoform, PKC α (in parentheses)) was 9.10, the “Fold selectivity (IC50), PKC α” value ([4]; literature values, relative to most potently inhibited isoform (=1)) was 1 fold and the “selectivity for PKCα versus PKCβ” value [5] was 385 fold. The “Fold selectivity (IC50), PKC ζ” value [6] was 640 fold, the “Fold selectivity (IC50), PKC ε” value [7] was 600 fold and the “Fold selectivity (IC50), PKC δ” value [8] was 2730 fold. The “selectivity for PKCα versus PKCγ” value [9] was 580 fold and the “Fold selectivity (IC50), PKC η” value [10] was 1310 fold.
